US7655620B2, “Use of one or more metal carriers to selectively kill mammalian cells” (Cancure Laboratories, LLC, priority 2005, dated 2010)
“Also recorded” adds a separate entry of the source.

Key:
[1] = system: MDA-MB-231 human mammary gland adenocarcinoma cells; assay: Cell death judged from cell morphology (photographs); assay type: cell-based; details: 5 μM CCK3, 10 μM cadmium, alone or in combination; 60 min; 10% serum-containing medium
Description: (§1) MDA-MB-231 cells were cultured in Leibovitz's L-15 medium and 10% fetal bovine serum; the medium was changed 2 hours prior to treatments. For the treatments, cells were incubated in triplicate in 12-well plates. A typical experiment with these cells is illustrated in FIG. 3. The cells were untreated (FIG. 3A) or treated with 5 μM CCK3 (FIG. 3B), 10 μM cadmium (FIG. 3C), or 5 μM CCK3+10 μM cadmium (FIG. 3D) for 60 min in 10% serum-containing medium. […] In some experiments, cells were also incubated with [^3H]thymidine (1 μCi/ml) during the last 30 min of treatment to determine DNA synthesis. Cadmium and […] decreased DNA synthesis by 6 and 12%, while in combination they had 100% inhibitory effect.
(§2) The cells were cultured as described in Example 4. The cadmium/MT contained 5 cadmium atoms per one MT molecule while zinc/MT contained 5 zinc atoms per one MT molecule. […] Thus, in this cell line cadmium/MT+PDC killed cells more rapidly and efficiently compared to the same amount of zinc/MT+PDC.

[2] = system: various cancer and human normal 966 SK skin fibroblasts; assay: MTT assay, statements over all cell lines of Example 6; assay type: cell-based; details: CCK3 10 μM, cadmium/MT 60 μg/ml, alone or combined, 24 hour
Description: (§3) Biochem. Biophys. Res. Commun. 213, 980-985]. […] Survival values obtained with untreated cells were considered 100%. […] Cancer Res. 47, 936-942].
MCF-7 estrogen receptor positive human breast carcinoma cells and CaOV-3 human ovarian adenocarcinoma cells were grown in Dulbecco's modified Eagle's medium containing 4 mM L-glutamine, 1.5 g/L sodium bicarbonate, 4.5 g/L glucose, 1 mM sodium pyruvate and 10% fetal bovine serum. T47D human mammary gland ductal carcinoma cells and ZR-75-1 estrogen receptor positive human mammary gland ductal carcinoma cells were cultured in RPMI 1640 medium as indicated above. MB-468 and MB-231 human mammary gland adenocarcinoma cells were maintained in Leibovitz's L-15 medium as described above. AN3CA human endometrial adenocarcinoma and 966 SK normal human skin fibroblasts were cultured in Eagles's minimum essential medium supplemented with 0.1 mM non-essential amino acids and 10% fetal bovine serum. The preparation of MT (from Sigma-Aldrich, Inc.) used in this experiment contained about 4 ions of cadmium and only about 0.3 ions of zinc per MT molecule. […] The MTT assay was used for the determination of relative cell numbers. Data are illustrated in FIG. 4 as rates of growth inhibition (maximum inhibition=100%) in comparison to values without treatment. The error bars indicate S.D. (n=8). […]

[3] = system: T47D human mammary gland ductal carcinoma cells; assay: Cell death judged from cell morphology (photographs); assay type: cell-based; details: 5 μM CCK3, 10 μM cadmium, alone or in combination; 4 hours; 10% serum-containing medium
[4] = system: ZR-75-1 cells
Description: Biochem. Biophys. Res. Commun. […] Survival values obtained with untreated cells were considered 100%.
(§4) ZR-75-1 cells were cultured in triplicate in 12-well plates in the medium described in Example 4. The cadmium/MT contained 5 atoms of cadmium and 1 atom of zinc, while the zinc/MT contained 5 atoms of zinc and 1 atom of cadmium per one MT molecule. ZR-75-1 cells were incubated in 10% serum-containing medium for 24 h in the absence (FIG. 6A) or presence of 15 μM CCK3 (FIG. 6B), 60 μg/ml of cadmium/MT (FIG. 6C), 60 μg/ml of cadmium/MT+15 μM CCK3 (FIG. 6D), 240 μg/ml of zinc/MT (FIG. 6E), or 240 μg/ml of zinc/MT+15 μM CCK3 (FIG. 6F).
(§5) Cells were cultured in triplicate in 12-well plates as described in Example 4. The ratio of cadmium and zinc in cadmium/MT was 5:1 per one MT molecule. ZR-75-1 cells were incubated in 10% serum-containing medium for 8 hours in the absence (FIG. 7A) or presence of 20 μM CCK3 (FIG. 7B), 120 μg/ml of cadmium/MT (FIG. 7C), or 120 μg/ml of cadmium/MT+20 μM CCK3 (FIG. 7D).

[5] = system: MCF-7 cells; assay: Cell death judged from cell morphology (photographs); assay type: cell-based, human; details: 20 μM CCK3, 120 μg/ml cadmium/MT, alone or combined; 8 hours; 10% serum
Description: (§6) The cells were cultured as described in Example 4.

[6] = system: cancer cells (CaOV-3, T47D and PC-3); assay: MTT assay / killing, statements over several cancer cell lines (metal/MTLP-25); assay type: cell-based, human; details: 20 μM CCK3, 100 μg/ml metal/MTLP-25, 24 hours; summary of Table 1
Description: The concentration range for these cadmium/MTLP-25 effects in some embodiments is 10-600 μg/ml, while in other embodiments, the concentration range is 50-200 μg/ml. Therapeutically effective concentrations of metal/MTLP-25 and CCK3 or PDC exert maximal effects on tumors without causing significant toxicity.
PC-3 human prostate adenocarcinoma cells were maintained and treated in Ham's F12K medium containing 7% fetal bovine serum. The CaOV-3 human ovarian adenocarcinoma cells were maintained and treated in Dulbecco's modified Eagle's medium containing 4 mM L-glutamine, 1.5 g/L sodium bicarbonate, 4.5 g/L glucose, 1 mM sodium pyruvate and 10% fetal bovine serum. T47D were maintained and treated in RPMI 1640 cell culture medium (see Gibco Catalogue) supplied with 2 mM L-glutamine, 10 mM Hepes, 1 mM sodium pyruvate, 4.5 g/L glucose, 1.5 g/L sodium bicarbonate, 0.2 I.U. bovine insulin/ml, and 10% fetal bovine serum. The cells were incubated in 96-well plates in the medium described above for 24 hours in the absence or presence of 20 μM CCK3 and/or 100 μg/ml of cadmium/MTLP-25 or 100 μg/ml of zinc/MTLP-25 as indicated in Table 1. After the treatment period, the MTT assay was used to determine the relative cell number of viable cells. Errors are expressed as S.D. (n=8 for each treatment).

[7] = system: ZR-75-1 human breast cancer cells; assay: Cell death judged from cell morphology (photographs); assay type: cell-based
Description: as §4, with “6A) or presence of 15 μM CCK3 (FIG. 6B), 60 μg/ml of cadmium/MT (FIG. 6C), 60 μg/ml of cadmium/MT+15 μM CCK3 (FIG.” left out, “6E), or 240 μg/ml of zinc/MT+15 μM CCK3 (FIG.” left out
as §5

[8] = system: MCF-7 cells; assay: Trypan blue exclusion assay; assay type: cell-based, human; details: 20 μM CCK3, 120 μg/ml cadmium/MT, alone or combined; 8 hours
Description: as §3, §6

[9] = system: cancer cells; assay: Killing of cancer cells by dithiocarbamates in the absence or presence of cadmium/zinc; assay type: cell-based; details: for induction of cell death in the presence of cadmium or zinc: in vitro; for effectiveness in killing cancer cells in comparison to CCK3: 10-50 μM, absence or presence of 20 μM CdCl2/ZnCl2
Description: A large number of dithiocarbamates can be synthesized that, similar to 3-aminopropylpiperidine-1-carbodithioate (CCK3), contain a free amino group. Several of these compounds were synthesized and tested (in the range of 10-50 μM concentration) on cancer cells in the absence or presence of 20 μM CdCl2/ZnCl2 in comparison to CCK3, as follows. […] Similarly, 1-{[(3-aminopropyl)thio]carbonothiol}pyrrolidine-2-carboxilic acid.HCl salt (for structure see FIG. 1) was ineffective both in the absence and presence of cadmium/zinc. The last two compounds may be ineffective because the presence of carboxyl group may interfere with proper binding of cadmium and zinc to the molecule. 3-Aminopropylpyrrolidine-1-carbodithionate. […] From this list, it appears that not every free amino group-containing dithiocarbamate can effectively kill cells in the presence of cadmium and zinc. In some of these cases the metal atom may bind to the dithiocarbamate molecule too strongly (covalently), not allowing dissociation of the metal from the molecule once inside the cell. After comparison of the above compounds with the effects of CCK3, further experiments were principally carried out with PDC and CCK3. These are representative compounds that can be the most effectively and most economically used when either no further modification of the molecule is required (PDC) or when modification with a targeting moiety is required (CCK3).

[10] = system: T47D cells; assay: [3H]thymidine DNA synthesis; assay type: cell-based, human; details: 5 μM CCK3, 10 μM cadmium, alone or in combination; 4 hours; [3H]thymidine during last 30 min
Description: as §3
T47D Cells were cultured in RPMI 1640 cell culture medium (see Gibco Catalogue) supplied with 2 mM L-glutamine, 10 mM Hepes, 1 mM sodium pyruvate, 4.5 g/L glucose, 1.5 g/L sodium bicarbonate, 0.2 I.U. bovine insulin/ml, and 10% fetal bovine serum. The medium was changed for fresh 10% serum-containing medium 2 hours prior to treatments. For the treatments, the cells were incubated in triplicate in 12-well plates. The cells were untreated (FIG. 2A) or treated with 5 μM CCK3 alone (FIG. 2B), 10 μM cadmium alone (FIG. 2C), or 5 μM CCK3 and 10 μM cadmium in combination (FIG. 2D) for 4 hours in 10% serum-containing medium when the photographs were taken. […] Finally, cells were incubated with [^3H]thymidine (1 μCi/ml) during the last 30 min of treatment to determine DNA synthesis. Cadmium and CCK3 decreased DNA synthesis by 13 and 8% respectively, while in combination they had practically 100% inhibitory effect.

[11] = system: MDA-MB-231 cells; assay: [3H]thymidine DNA synthesis; assay type: cell-based, human; details: 60 min treatment, 10 μM cadmium, alone or in combination; [3H]thymidine during last 30 min
Description: as §3, §1, §2

Cl.NCCCSC(=S)N1CCCCC1 [CCK3, 3-aminopropylpiperidine-1-carbodithioate.HCl salt]
cell death indicated by cell morphology (cell rounding) [1]: no effects on cell morphology
cell viability (FIG. 4) [2]: significantly smaller than the combined effects
cell death indicated by cell morphology (cell rounding) [3]: no effects on cell morphology
cells killed (trypan blue exclusion assay) ([4]; 15 μM CCK3, 60 μg/ml cadmium/MT, 240 μg/ml zinc/MT, alone or MT+CCK3, 24 h): practically no effects
cells with decreased viability / killed (trypan blue exclusion assay) ([4]; 20 μM CCK3, 120 μg/ml cadmium/MT, alone or combined, 8 hours): 16%
cell death indicated by cell morphology [5]: failed to significantly alter cell morphology
reduction of the viability of cancer cells [6]: no effects
cell death indicated by cell morphology ([7]; 20 μM CCK3, 120 μg/ml cadmium/MT, alone or combined, 8 hours, 10% serum): failed to significantly alter cell morphology
cell death indicated by cell morphology (FIG. 6 legend) ([7]; CCK3 10 μM, cadmium/MT 60 μg/ml, zinc/MT 240 μg/ml, alone or MT+CCK3, 24 hours): failed to significantly alter cell morphology
cells killed (trypan blue exclusion assay) [8]: practically no effects on viability
induction of cell death in the presence of cadmium or zinc [9]: retains its ability to carry metals inside the cells resulting in cell death; also recorded: killed the cells
decrease of DNA synthesis [10]: 8%

CCN(CC)C(=S)S [diethyldithocarbamate, reference compound]
induction of cell death in the presence of cadmium or zinc [9]: as effective as CCK3

cadmium
cell death indicated by cell morphology (cell rounding) [1]: no effects on cell morphology
cell death indicated by cell morphology (cell rounding) [3]: no effects on cell morphology
decrease of DNA synthesis [11]: 6%
decrease of DNA synthesis [10]: 13%

NCCCSC(=S)N1CCCCC1C(=O)O (stereo not shown) [1-{[(3-aminopropyl)thio]carbonothioyl}piperidine-2-carboxilic acid]
effectiveness in killing cancer cells in comparison to CCK3 [9]: not effective at all

Cl.NCCCSC(=S)N1CCCC1 [3-Aminopropylpyrrolidine-1-carbodithionate. HCl salt]
effectiveness in killing cancer cells in comparison to CCK3 [9]: significantly less effective than CCK3

C[N+](C)(C)CCOC(=S)SCCCN.[Cl-] [2({[(3-aminopropyl)thio]carbonothionyl}oxy)-N,N,N-trimethylethanolamine-chloride]
effectiveness in killing cancer cells in comparison to CCK3 [9]: less effective than CCK3

S=C(S)N1CCCC1 [PDC, pyrrolidinecarbodithioic acid, reference compound]
decrease of DNA synthesis [11]: 12%

Cl.NCCCSC(=S)N1CCCC1C(=O)O (stereo not shown) [1-{[(3-aminopropyl)thio]carbonothiol}pyrrolidine-2-carboxilic acid.HCl salt]
effectiveness in killing cancer cells in comparison to CCK3 [9]: ineffective
